We go through 29 compounds from patent US20230203060A1 (GENFLEET THERAPEUTICS (SHANGHAI) INC., priority 2020, published 2023).

Counter-ions that a name gives are not always drawn.

This test deals with T1, KRAS G12C (Homo sapiens, UniProt P01116, G12C).
T1 construct: purchased Reactionbiology
T1 sequence (P01116 1-188 isoform P01116-2 G12C): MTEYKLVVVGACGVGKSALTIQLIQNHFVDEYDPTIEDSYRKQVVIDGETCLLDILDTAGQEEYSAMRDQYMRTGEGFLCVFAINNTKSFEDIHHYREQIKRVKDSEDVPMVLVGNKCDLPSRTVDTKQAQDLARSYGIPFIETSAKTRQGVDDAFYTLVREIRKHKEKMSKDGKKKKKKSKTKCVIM
Description: KRAS G12C NEA-HTRF experiment (SOS1-catalyzed displacement of GDP by GTP). Format: biochemical. A digest of the protocol: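 His-tagged KRAS G12C preloaded with DY647-GDP was preincubated 15 min at 20 °C with compound, then exchanged with SOS1 (0.2 μM working solution) and GTP (200 μM working solution) for 2 h at 20 °C in the dark. HTRF 665/615 nm ratio with anti-His-Tb was normalised to T0 and no-compound controls; IC50 by four-parameter fit.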
Compound `C=CC(=O)N1CCN2C(=O)c3c(NC(C)(C)C)nc(-c4c(O)cccc4F)c(Cl)c3OC[C@H]2C1` [Z69, (6aR)-8-acryloyl-1-(tert-butylamino)-4-chloro-3-(2-fluoro-6-hydroxyphenyl)-6,6a,7,8,9,10-hexahydro-12H-pyrazino[2,1-c]pyrido[3,4-f][1,4]oxazepin-12-one] displayed an IC50 of 79 nM. Next, `C=CC(=O)N1CCN2C(=O)c3c(N4C[C@H](N(C)CCF)CC4(C)C)nc(-c4ccccc4F)c(Cl)c3OC[C@H]2C1` (single isomer, unassigned) [Z660-2]: 50.5 nM. Next, `C=CC(=O)N1CCN2C(=O)c3c(N4CC(=O)N(C)CC4C)nc(-c4c(O)cccc4F)c(Cl)c3OC[C@H]2C1` (stereo partly drawn) [Z221, (6aR)-8-acryloyl-4-chloro-1-(2,4-dimethyl-5-oxopiperazin-1-yl)-3-(2-fluoro-6-hydroxyphenyl)-6,6a,7,8,9,10-hexahydro-12H-pyrazino[2,1-c]pyrido[3,4-f][1,4]oxazepin-12-one]: 36 nM; `C=CC(=O)N1CCN2C(=O)c3c(N4CC[C@@H]4C)nc(-c4c(O)cccc4F)c(Cl)c3OC[C@H]2C1` [Z68, (6aR)-8-acryloyl-1-((S)-2-methylazetidin-1-yl)-4-chloro-3-(2-fluoro-6-hydroxyphenyl)-6,6a,7,8,9,10-hexahydro-12H-pyrazino[2,1-c]pyrido[3,4-f][1,4]oxazepin-12-one]: 88 nM; `C=CC(=O)N1CCN2C(=O)c3c(N4CC(=O)N(C)CC4C)nc(-c4c(O)cccc4F)c(Cl)c3OC[C@H]2C1` (single isomer, unassigned) [Z221-2]: 139 nM. Next, `C=CC(=O)N1CCN2C(=O)c3c(N4CCN(C)C[C@@H]4C)nc(-c4c(O)cccc4Cl)c(Cl)c3OC[C@H]2C1` (single isomer, unassigned) [Z455-2]: 46.3 nM; `C=CC(=O)N1CCN2C(=O)c3c(N4CCN(CC)C[C@@H]4C)nc(-c4c(O)cccc4F)c(Cl)c3OC[C@H]2C1` [Z236]: 113 nM.

On to `C=CC(=O)N1CCN2C(=O)c3c(N4CC(N(C)C5COC5)CC4(C)C)nc(-c4c(O)cccc4F)c(Cl)c3OC[C@H]2C1` (single isomer, unassigned) [Z331-2], for which the concentration for half-maximal inhibition (IC50) was 7 nM.

Compound `C=CC(=O)N1CCN2C(=O)c3c(N4CCN(C)C[C@@H]4C)nc(-c4c(O)cccc4Cl)c(Cl)c3OC[C@H]2C1` (single isomer, unassigned) [Z455-1] came in with a half-maximal inhibitory concentration (IC50) of 692 nM. The value for `C=CC(=O)N1CCN2C(=O)c3c(N4CCNC(C)C4C)nc(-c4c(O)cccc4F)c(Cl)c3OC[C@H]2C1` (stereo partly drawn) [Z308, (6aR)-8-acryloyl-4-chloro-1-(2,3-dimethylpiperazin-1-yl)-3-(2-fluoro-6-hydroxyphenyl)-6,6a,7,8,9, 10-hexahydro-12H-pyrazino[2,1-c]pyrido[3,4-f][1,4]oxazepin-12-one] was 167 nM; that for `C=CC(=O)N1CCN2C(=O)c3c(N4CC(N(C)CC(F)F)CC4(C)C)nc(-c4ccccc4F)c(Cl)c3OC[C@H]2C1` (some centres unmarked) [Z659] was 19.4 nM. Next, `C=CC(=O)N1CCN2C(=O)c3c(N4CC(=O)N(C)CC4C)nc(-c4c(O)cccc4F)c(Cl)c3OC[C@H]2C1` (single isomer, unassigned) [Z221-1]: 14 nM; `C=CC(=O)N1CCN2C(=O)c3c(N4C[C@H](N(C)C)CC4(C)C)nc(-c4ccccc4)c(Cl)c3OC[C@H]2C1` (single isomer, unassigned) [Z655-2]: 128 nM. Next, `C=CC(=O)N1CCN2C(=O)c3c(N4CCN(C)C(C)C4C)nc(-c4c(O)cccc4F)c(Cl)c3OC[C@H]2C1` (stereo partly drawn) [Z308a, (6aR)-8-acryloyl-4-chloro-3-(2-fluoro-6-hydroxyphenyl)-1-(2,3,4-trimethylpiperazin-1-yl)-6,6a,7,8,9,10-hexahydro-12H-pyrazino[2,1-c]pyrido[3,4-f][1,4]oxazepin-12-one]: 111 nM; `C=CC(=O)N1CCN2C(=O)c3c(N4C[C@H](O)C[C@@H]4C)nc(-c4c(O)cccc4F)c(Cl)c3OC[C@H]2C1` [Z259, (6aR)-8-acryloyl-4-chloro-3-(2-fluoro-6-hydroxyphenyl)-1-((2S,4R)-4-hydroxy-2-methylpyrrolidin-1-yl)-6,6a,7,8,9,10-hexahydro-12H-pyrazino[2,1-c]pyrido[3,4-f][1,4]oxazepin-12-one]: 113 nM. The compound `C=CC(=O)N1CCN2C(=O)c3c(N4CC(N5CCOCC5)CC4(C)C)nc(-c4ccccc4F)c(Cl)c3OC[C@H]2C1` (single isomer, unassigned) [Z468-2] yielded an IC50 of 46.5 nM.

`C=CC(=O)N1CCN2C(=O)c3c(N4CC(O)CC4(C)C)nc(-c4c(O)cccc4F)c(F)c3OC[C@H]2C1` (stereo partly drawn) [Z256, (6aR)-8-acryloyl-4-fluoro-3-(2-fluoro-6-hydroxyphenyl)-1-(4-hydroxy-2,2-dimethylpyrrolidin-1-yl)-6,6a,7,8,9,10-hexahydro-12H-pyrazino[2,1-c]pyrido[3,4-f][1,4]oxazepin-12-one] returned an IC50 of 64 nM. Next, `C=CC(=O)N1CCN2C(=O)c3c(N4C[C@H](O)CC4(C)C)nc(-c4c(O)cccc4F)c(Cl)c3OC[C@H]2C1` (single isomer, unassigned) [Z82]: 44 nM; `C=CC(=O)N1CCN2C(=O)c3c(N4C[C@H](NC)CC4(C)C)nc(-c4ccccc4F)c(Cl)c3OC[C@H]2C1` (single isomer, unassigned) [Z661-2]: 511 nM. Next, `C=CC(=O)N1CCN2C(=O)c3c(N4CCN(C)C(C)(C)C4)nc(-c4ccccc4F)c(Cl)c3OC[C@H]2C1` [Z463, (R)-8-acryloyl-4-chloro-3-(2-fluorophenyl)-1-(3,3,4-trimethylpiperazin-1-yl)-6,6a,7,8,9,10-hexahydro-12H-pyrazino[2,1-c]pyrido[3,4-f][1,4]oxazepin-12-one, formate]: 760 nM; `C=CC(=O)N1CCN2C(=O)c3c(N4CCN(C)C(C)(C)C4)nc(-c4c(O)cccc4F)c(Cl)c3OC[C@H]2C1` [Z261, (6aR)-8-acryloyl-4-chloro-3-(2-fluoro-6-hydroxyphenyl)-1-(3,3,4-trimethylpiperazin-1-yl)-6,6a,7,8,9,10-hexahydro-12H-pyrazino[2,1-c]pyrido[3,4-f][1,4]oxazepin-12-one]: 150 nM; `C=CC(=O)N1CCN2C(=O)c3c(N4C[C@@H](O)CC4(C)C)nc(-c4c(O)cccc4F)c(Cl)c3OC[C@H]2C1` (single isomer, unassigned) [Z81]: 6 nM.

In turn, `C=CC(=O)N1CCN2C(=O)c3c(N4CCOC5CC54)nc(-c4c(O)cccc4F)c(Cl)c3OC[C@H]2C1` (stereo partly drawn) [Z76, (6aR)-8-acryloyl-4-chloro-1-(2-oxa-5-azabicyclo[4.1.0]heptan-5-yl)-3-(2-fluoro-6-hydroxyphenyl)-6,6a,7,8,9,10-hexahydro-12H-pyrazino[2,1-c]pyrido[3,4-f][1,4]oxazepin-12-one] gave an IC50 of 173 nM.

In the case of `C=CC(=O)N1CCN2C(=O)c3c(NC(C)C)nc(-c4c(O)cccc4F)c(Cl)c3OC[C@H]2C1` [Z75, (6aR)-8-acryloyl-4-chloro-1-(isopropylamino)-3-(2-fluoro-6-hydroxyphenyl)-6,6a,7,8,9,10-hexahydro-12H-pyrazino[2,1-c]pyrido[3,4-f][1,4]oxazepin-12-one], the IC50 was 138 nM. Next, `C=CC(=O)N1CCN2C(=O)c3c(OC4CCN(C)CC4)nc(-c4c(O)cccc4F)c(Cl)c3OC[C@H]2C1` [Z61, (6aR)-8-acryloyl-4-chloro-3-(2-fluoro-6-hydroxyphenyl)-1-((1-methylpiperidin-4-yl)oxy)-6,6a,7,8,9,10-hexahydro-12H-pyrazino[2,1-c]pyrido[3,4-f][1,4]oxazepin-12-one]: 176 nM.

`C=CC(=O)N1CCN2C(=O)c3c(N4C[C@@H](O)C[C@@H]4C)nc(-c4c(O)cccc4F)c(Cl)c3OC[C@H]2C1` [Z260, (6aR)-8-acryloyl-4-chloro-3-(2-fluoro-6-hydroxyphenyl)-1-((2S,4S)-4-hydroxy-2-methylpyrrolidin-1-yl)-6,6a,7,8,9,10-hexahydro-12H-pyrazino[2,1-c]pyrido[3,4-f][1,4]oxazepin-12-one]: the IC50 stood at 33 nM. The value for `C=CC(=O)N1CCN2C(=O)c3c(N4CCN(CCO)C[C@@H]4C)nc(-c4c(O)cccc4F)c(Cl)c3OC[C@H]2C1` [Z257, (6aR)-8-acryloyl-4-chloro-3-(2-fluoro-6-hydroxyphenyl)-1-((S)-4-(2-hydroxyethyl)-2-methylpiperazin-1-yl)-6,6a,7 ,8,9,10-hexahydro-12H-pyrazino[2,1-c]pyrido[3,4-f][1,4]oxazepin-12-one] was 93 nM; that for `C=CC(=O)N1CCN2C(=O)c3c(N4CC(N(C)C5COC5)CC4(C)C)nc(-c4c(O)cccc4F)c(Cl)c3OC[C@H]2C1` (single isomer, unassigned) [Z331-1] was 5 nM. Take `C=CC(=O)N1CCN2C(=O)c3c(C4NCCN5C(=O)CCC45C)nc(-c4c(O)cccc4F)c(Cl)c3OC[C@H]2C1` (stereo partly drawn) [Z337, (6aR)-8-acryloyl-4-chloro-3-(2-fluoro-6-hydroxyphenyl)-1-(8a-methylhexahydropyrrolo[1,2-a]pyrazin-6 (2H)-one-1-yl)-6,6a,7,8,9,10-hexahydro-12H-pyrazino[2,1-c]pyrido[3,4-f][1,4]oxazepin-12-one]: the IC50 amounted to 58 nM.

Usually IC50 stands for the concentration at which inhibition is half-maximal. The low end stands for greater potency in that assay, the high end for weaker potency in that assay.
